Source: ChEMBL document CHEMBL4732091, “Design, synthesis and biological evaluation of novel thiosemicarbazone-indole derivatives targeting prostate cancer cells” (Eur J Med Chem, 2021)
The source made the active and inactive calls. The calls are words filed in the database; no cut-off is given here.

Tests used:
[1] = Cytotoxicity against human WPMY-1 cell line cells assessed as inhibition of cell proliferation measured after 72 hrs by MTT assay; assay type: cell-based; details: WPMY-1, 72 h
PC-3 [2] = assay: Induction of apoptosis in human PC-3 cells assessed as viable cells at 50 nM measured after 72 hrs by Annexin V-FITC/propidium iodide staining based flow cytometry method (reference value: 97.2 %); assay type: functional; details: read-out: Activity
PC-3 [3] = assay: Antiproliferative activity against human PC-3 cells assessed as inhibition of cell proliferation measured after 24 to 72 hrs by MTT assay; assay type: functional, cell-based; details: dose 0.156-20 µM, time 24-72 hrs
DU-145 [4] = assay: Induction of apoptosis in human DU-145 cells assessed as late apoptotic cells at 0.5 uM measured after 72 hrs by Annexin V-FITC/propidium iodide staining based flow cytometry method (reference value: 1.77 %); assay type: functional
DU-145 [5] = assay: Induction of ROS generation in human DU-145 cells assessed as intracellular ROS level at 3 uM measured after 48 hrs by DCFH-DA staining based flowcytometry method (reference value: 52 %); assay type: functional
PC-3 [6] = assay: Induction of apoptosis in human PC-3 cells assessed as formation of apoptotic bodies at 25 to 100 nM measured after 72 hrs by Hoechst staining based fluorescence microscope method; assay type: functional, cell-based; details: dose 25-100 nM
DU-145 [7] = assay: Induction of ROS generation in human DU-145 cells assessed as intracellular ROS level at 3 uM pretreated with NAC followed by compound treatment measured after 48 hrs by DCFH-DA staining based flowcytometry method (reference value: 75.1 %); assay type: functional
PC-3 [8] = assay: Induction of ROS generation in human PC-3 cells assessed as intracellular ROS level at 125 nM measured after 48 hrs by DCFH-DA staining based flowcytometry method (reference value: 55.2 %); assay type: functional
[9] = Toxicity in C57BL/6 mouse assessed as effect on heart at 2 mg/kg, IG measured after 2 weeks by hematoxylin and eosin staining based imaging analysis; assay type: organism-based; details: in vivo, po, 336 h
DU-145 [10] = assay: Induction of apoptosis in human DU-145 cells assessed as early apoptotic cells at 2 uM measured after 72 hrs by Annexin V-FITC/propidium iodide staining based flow cytometry method (reference value: 0.835 %); assay type: functional
DU-145 [11] = assay: Cell cycle arrest in human DU-145 cells assessed as accumulation of cells in G1/S phase by measuring upregulation of p27 measured after 48 hrs by Western blot assay; assay type: functional, cell-based; details: dose 1.5-6 µM
DU-145 [12] = assay: Induction of cell cycle arrest in human DU-145 cells assessed as accumulation at G1/S phase measured after 48 hrs by PI staining based Flowcytometry method; assay type: functional; details: dose 1.5-6 µM
PC-3 [13] = assay: Induction of apoptosis in human PC-3 cells assessed as necrotic cells at 50 nM measured after 72 hrs by Annexin V-FITC/propidium iodide staining based flow cytometry method (reference value: 1.2 %); assay type: functional
DU-145 [14] = assay: Induction of apoptosis in human DU-145 cells assessed as viable cells at 2 uM measured after 72 hrs by Annexin V-FITC/propidium iodide staining based flow cytometry method (reference value: 96.3 %); assay type: functional; details: read-out: Activity
DU-145 [15] = assay: Cytotoxicity against human DU-145 cells assessed as cell viability pre-treated with SB203580 for 4 hrs followed by compound treatment and measured after 72 hrs by MTT assay; assay type: functional, cell-based
PC-3 [16] = assay: Activation of MAPK signaling in human PC-3 cells assessed as increase in phosphorylated JNK (Thr 183/Tyr 185) at 125 to 500 nM measured by Western blot assay; assay type: cell-based; details: filed as activator, dose 125-500 nM
PC-3 [17] = assay: Induction of apoptosis in human PC-3 cells assessed as late apoptotic cells at 50 nM measured after 72 hrs by Annexin V-FITC/propidium iodide staining based flow cytometry method (reference value: 1.01 %); assay type: functional
DU-145 [18] = assay: Induction of ROS generation in human DU-145 cells assessed as increase in intracellular ROS level at 250 nM pretreated with NAC followed by compound treatment measured after 48 hrs by DCFH-DA staining based flowcytometry method; assay type: functional, cell-based
DU-145 [19] = assay: Induction of ROS generation in human DU-145 cells assessed as intracellular ROS level at 1.5 uM measured after 48 hrs by DCFH-DA staining based flowcytometry method (reference value: 52 %); assay type: functional
PC-3 [20] = assay: Induction of apoptosis in human PC-3 cells assessed as early apoptotic cells at 25 nM measured after 72 hrs by Annexin V-FITC/propidium iodide staining based flow cytometry method (reference value: 0.452 %); assay type: functional
PC-3 [21] = assay: Induction of apoptosis in human PC-3 cells assessed as early apoptotic cells at 100 nM measured after 72 hrs by Annexin V-FITC/propidium iodide staining based flow cytometry method (reference value: 0.452 %); assay type: functional
DU-145 [22] = assay: Induction of apoptosis in human DU-145 cells assessed as early apoptotic cells at 1 uM measured after 72 hrs by Annexin V-FITC/propidium iodide staining based flow cytometry method (reference value: 0.835 %); assay type: functional
PC-3 [23] = assay: Induction of apoptosis in human PC-3 cells assessed as early apoptotic cells at 50 nM measured after 72 hrs by Annexin V-FITC/propidium iodide staining based flow cytometry method (Rvb 0.452 %); assay type: functional
PC-3 [24] = assay: Induction of apoptosis in human PC-3 cells assessed as viable cells at 25 nM measured after 72 hrs by Annexin V-FITC/propidium iodide staining based flow cytometry method (reference value: 97.2 %); assay type: functional; details: read-out: Activity
PC-3 [25] = assay: Induction of apoptosis in human PC-3 cells assessed as cell rounding at 25 to 100 nM measured after 72 hrs by Hoechst staining based fluorescence microscope method; assay type: functional; details: dose 25-100 nM
DU-145 [26] = assay: Activation of MAPK signaling in human DU-145 cells assessed as increase in phosphorylated ERK 1/2 (Thr 202/Tyr 204) at 125 to 500 nM measured by Western blot assay; assay type: cell-based; details: filed as activator, dose 125-500 nM
PC-3 [27] = assay: Antiproliferative activity against human PC-3 cells assessed as inhibition of cell proliferation measured after 72 hrs by MTT assay; assay type: functional, cell-based; details: PC-3, 72 h
DU-145 [28] = assay: Induction of apoptosis in human DU-145 cells assessed as nuclear fragmentation at 0.5 to 2 uM measured after 72 hrs by Hoechst staining based fluorescence method; assay type: functional, cell-based; details: dose 0.5-2 µM
PC-3 [29] = assay: Induction of cell cycle arrest in human PC-3 cells assessed as accumulation at G1/S phase at 125 nM measured after 48 hrs by propidium iodide staining based flowcytometry method (reference value: 19.23%); assay type: functional
DU-145 [30] = assay: Induction of apoptosis in human DU-145 cells assessed as necrotic cells at 0.5 uM measured after 72 hrs by Annexin V-FITC/propidium iodide staining based flow cytometry method (reference value: 1.13 %); assay type: functional
PC-3 [31] = assay: Antiproliferative activity against human PC-3 cells assessed as inhibition of cell proliferation in presence of Fe3+ measured after 72 hrs by MTT assay; assay type: functional, cell-based
PC-3 [32] = assay: Antitumour activity against human PC-3 cells xenografted in BALB/c-NU mouse assessed as reduction in tumour growth at 12.5 mg/kg, IG qd measured after 21 days relative to control; assay type: functional; design: scale not given: the % may be the effect or the level left; details: time 21 day
DU-145 [33] = assay: Antiproliferative activity against human DU-145 cells assessed as inhibition of cell proliferation at 0.156 to 20 uM by MTT assay; assay type: functional, cell-based; details: dose 0.156-20 µM, time 24-72 hrs, TDE = time-dependent effect

Cc1ccc(/C=N/NC(=S)Nc2ccc(C(=O)NCCc3c(C)[nH]c4ccccc34)cc2)nc1
IC50 [1]: 19.5 µM
viability at 0.05 µM (PC-3 [2]): 64%
inhibition (PC-3 [3]): Dose-dependent effect
Activity (DU-145 [4]): 3.78%
Activity (DU-145 [5]): 75.1%
Activity (PC-3 [6]): Active
Activity (DU-145 [7]): 60.1%
Activity (PC-3 [8]): 75.4%
Activity [9]: Non-Toxic
Activity (DU-145 [10]): 10.5%
Activity (DU-145 [11]): Active
Activity (DU-145 [12]): Dose-dependent effect
Activity (PC-3 [13]): 8.91%
viability at 2 µM (DU-145 [14]): 43.8%
inhibition (DU-145 [15]): inactive
Activity (PC-3 [16]): Active
Activity (PC-3 [17]): 33.5%
Activity (DU-145 [18]): inactive
Activity (DU-145 [19]): 71.3%
Activity (PC-3 [20]): 2.32%
Activity (PC-3 [21]): 5.76%
Activity (DU-145 [22]): 10.6%
Activity (PC-3 [23]): 5.6%
viability at 0.025 µM (PC-3 [24]): 98.5%
Activity (PC-3 [25]): Active
Activity (DU-145 [26]): Active
IC50 (PC-3 [27]): 0.054 µM
Activity (DU-145 [28]): Active
Activity (PC-3 [29]): 19.98%
Activity (DU-145 [30]): 1.95%
inhibition (PC-3 [31]): Active
Activity (PC-3 [32]): 53.6%
Activity (DU-145 [33]): Tde
